Our source for the Ki, degradation in solution and fluorescence enhancement factor values is publication PMC4516916, “Development of Plate Reader and On-Line Microfluidic Screening to Identify Ligands of the 5-Hydroxytryptamine Binding Protein in Venoms” (Toxins, 2015).

For data set [1], the target named is T1, A1B2D1R 5HTBP mutant (Aplysia californica, UniProt Q8WSF8). The data set can be described thus: Radioligand binding assay with [3H]-granisetron (SPA). The procedure:
The competitive radioligand-binding assay was performed as described by Kesters et al. 2013 [10]. His-tagged A1B2D1R 5HTBP was diluted in buffer (10 mM HEPES/0.05% Tween) to obtain 50 ng binding protein per well. […] The concentration of the radioligand [3H]-granisetron (Perkin-Elmer, Life Science, Groningen, The Netherlands, specific activity ~85 Ci/mmol) was 1.99 nM. After addition of PVT Copper His-Tag SPA beads (final concentration 2 mg/mL), the final well volume was 100 µL. The plates (white Optiplates, Perkin-Elmer Life Science, Groningen, The Netherlands) were incubated at room temperature under continuous shaking while protected from light for 1.5 h. The SPA beads were then allowed to settle for 3 h in the absence of light before counting in a Wallac 1450 MicroBeta (Perkin-Elmer Life Science, Groningen, The Netherlands). All radioligand binding data were fit by a non-linear, least squares curve analysis procedure using Graphpad Prism (version 5, GraphPad Software).

Data set [2] concerns the target T1, A1B2D1R 5HTBP mutant. The data set can be described thus: Fluorescence enhancement microplate reader assay (DAHBA tracer). It counts as binding. The procedure:
Next, specific and non-specific binding was determined by measuring a tracer saturation curve with and without a displacing ligand. In this experiment, the binding protein concentration was 50 nM while 100 µM granisetron was used as displacing ligand for measurement of the non-specific binding curve. […] The non-specific binding, the total binding curve and the resulting specific binding curve is shown (Figure 2C).
Fourteen 5-HT3R ligands, also binding to the 5HTBP [10], were selected for this experiment. The measured Ki values for both the fluorescence enhancement plate reader assay as well as those measured with the radioligand binding assay are listed (Supplementary Information Table S1).
The buffer used for development of the 5HTBP fluorescence enhancement assay consisted of 1 mM KH2PO4, 3 mM Na2HPO4, […], 20 mM trizma base/HCl at pH 7.5 with addition of 400 μg/mL ELISA BR [21]. The fluorescence enhancement was measured with a Victor3 Microplate reader from Perkin-Elmer. The excitation and emission wavelengths were set to 485 and 520 nm, respectively. Black-bottomed 96-well microplates were purchased from Greiner Bio-One (Alphen aan den Rijn, The Netherlands). The final assay volume was 100 µL per well. The 5HTBP was first mixed with the ligands, and then with the tracer ligand. The assay mixture was incubated for 5 min before the measurement. The pharmacological validation was performed by measurement of IC50 curves of twelve 5-HT3R ligands and comparing the results obtained with the results obtained from a radioligand binding assay (see below). The z’ factors for the determination of assay quality were calculated according to Zhang.

The nature of data set [3]: Stability of tracer ligand in solution (MS analysis). It counts as physicochemical. To be noted: deduced by MS analysis. The text has this:
(§1) We first evaluated three potentially suitable tracer ligands. […] Fluorescence enhancement factors are defined as fluorescence in presence of 5HTBP divided by fluorescence in absence of 5HTBP. […] DAHBA was therefore selected as the most suitable tracer ligand.

The test system of another data set is A1B2D1W 5HTBP. The data set can be described thus: Fluorescence enhancement of anabaseine derivatives with 5HTBP (cuvette fluorometer). It counts as binding, Aplysia californica. Particulars: fluorescence in presence of 5HTBP divided by fluorescence in absence of 5HTBP; A1B2D1W variant; excitation 488 nm. As to the method:
as §1
(§2) The fluorescence enhancement properties of three anabaseine derivatives (Supplementary Information Figure S3) bound to the orthosteric binding pocket of two different 5HTBP variants were measured using 1 cm wide glass cuvettes in a Perkin-Elmer LS50B fluorometer (Groningen, The Netherlands). The excitation spectra, λmax (nm), and ε (L·mol^−^1·cm^−^1) values of the anabaseine derivatives are described by Kool et al.. The emission spectra from 500–595 nm were recorded with 0.5 nm intervals with a fixed 488 nm excitation.

The test system of a further data set is A1B2D1R 5HTBP. The description is as above. It counts as binding, Aplysia californica. Particulars: fluorescence in presence of 5HTBP divided by fluorescence in absence of 5HTBP; A1B2D1R variant; excitation 488 nm. As to the method: as §1, §2
Where [4] appears, read: read-out: Ki RLB (A1B2D1R 5HTBP mutant); [3H]-granisetron 1.99 nM.
[5] abbreviates: read-out: Ki fluorescence enhancement (A1B2D1R 5HTBP mutant), plate reader assay.
The mark [6] stands for this setting: [3H]-granisetron 1.99 nM; read-out: Ki RLB (A1B2D1R 5HTBP mutant).
Where [7] appears, read: plate reader assay, read-out: Ki fluorescence enhancement (A1B2D1R 5HTBP mutant).

Structures can show the parent of a compound that is named as a salt.

T1 sequence (Q8WSF8 entry or part of it, change not shown): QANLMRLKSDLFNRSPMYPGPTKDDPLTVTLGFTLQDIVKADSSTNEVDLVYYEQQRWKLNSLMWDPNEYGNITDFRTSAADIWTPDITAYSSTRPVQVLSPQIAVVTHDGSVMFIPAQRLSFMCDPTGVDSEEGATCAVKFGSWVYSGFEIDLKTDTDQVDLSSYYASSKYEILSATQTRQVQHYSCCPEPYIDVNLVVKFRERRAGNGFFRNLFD

By Ki is commonly meant a measure of affinity in units of concentration, obtained from inhibition or displacement. As to `CN1C2CCCC1CC(NC(=O)c1nn(C)c3ccccc13)C2` (stereo not drawn) [granisetron, Granisetron], the Ki at A1B2D1R 5HTBP mutant [1] (setting [4]) was found to be 0.05 ± 0.01 µM; on A1B2D1R 5HTBP mutant [2] (setting [5]) it was 0.24 ± 0.14 µM.

For the compound `c1ccc2nc(N3CCNCC3)ccc2c1` [quipazine], the inhibition constant Ki turned out to be 53.8 ± 13.7 µM on A1B2D1R 5HTBP mutant [1] (setting [4]) and 73 ± 32.2 µM on A1B2D1R 5HTBP mutant [2] (setting [5]).

Regarding `CN1CCN2c3ncccc3Cc3ccccc3C2C1` (stereo not drawn) [mirtazapine], the inhibition constant (Ki) at A1B2D1R 5HTBP mutant [1] (setting [4]) was determined as 9.29 ± 1.87 µM; on A1B2D1R 5HTBP mutant [2] (setting [5]), 12.8 ± 3.99 µM.

For the compound `CN1CCc2cc(/C=C3\CCCN=C3c3cccnc3)ccc21` [VUF11234, (E)-1-methyl-5-((2-(pyridin-3-yl)-5,6-dihydropyridin-3(4H)-ylidene)methyl)indoline], the degradation in solution entry in data set [3] is on record as “notable degradation in solution”. The fluorescence enhancement factor in the data set with A1B2D1W 5HTBP is 3.7; in the data set on A1B2D1R 5HTBP it was 6.5.

On to `CN1CCN(c2nc3ccccc3nc2Cl)CC1` [VUF10166], for which the Ki on A1B2D1R 5HTBP mutant [1] (setting [6]) was 2.39 ± 0.58 µM; at A1B2D1R 5HTBP mutant [2] (setting [7]), 11.5 ± 3.58 µM.

As for `CN(C)c1ccc(/C=C2\CCCN=C2c2cccnc2)cc1` [VUF10907, (E)-3-(3-(4-Dimethylaminobenzylidene)-3,4,5,6-tetrahydropyridin-2-yl)pyridine], the fluorescence enhancement factor turned out to be 2.5 in the data set with A1B2D1W 5HTBP and 3.8 in the data set with A1B2D1R 5HTBP.

For `CN1[C@@H]2CC[C@H]1C[C@@H](OC(=O)c1c[nH]c3ccccc13)C2` [tropisetron], the inhibitory constant (Ki) at A1B2D1R 5HTBP mutant [1] (setting [4]) was 0.01 µM; on A1B2D1R 5HTBP mutant [2] (setting [5]) it was 0.04 µM.

Turning to `Cn1cc(C(=O)C(=O)NC2CN3CCC2CC3)c2ccccc21` (stereo not drawn) [RS56812], the inhibition constant Ki at A1B2D1R 5HTBP mutant [1] (setting [6]) is 1.6 ± 0.34 µM; on A1B2D1R 5HTBP mutant [2] (setting [7]) it was 3.57 ± 0.91 µM.

As to RS 16566, the inhibitory constant (Ki) at A1B2D1R 5HTBP mutant [1] (setting [6]) is 0.38 ± 0.09 µM; at A1B2D1R 5HTBP mutant [2] (setting [7]), 3 ± 0.02 µM.

Consider `NCCc1c[nH]c2ccc(F)cc12` [5-fluorotryptamine HCL], for which the figures for the inhibition constant (Ki) at A1B2D1R 5HTBP mutant [1] (setting [4]) and at A1B2D1R 5HTBP mutant [2] (setting [5]) were 101 ± 50.2 µM and 110 ± 14 µM, respectively.

As for `COc1cc(N)c(Cl)cc1C(=O)NC1CN2CCC1CC2` (stereo not drawn) [zacopride], the values for the Ki at A1B2D1R 5HTBP mutant [1] (setting [4]) and at A1B2D1R 5HTBP mutant [2] (setting [5]) were 1.62 ± 0.57 µM and 4.05 ± 1.14 µM, respectively.

As to `CCN(CC)c1ccc(/C=C2\CCCN=C2c2cccnc2)c(O)c1` [DAHBA, (E)-3-(3-(4-diethylamino-2-hydroxybenzylidene)-3,4,5,6-tetrahydropyridin-2-yl)pyridine], in the data set on A1B2D1R 5HTBP, the fluorescence enhancement factor is listed as 4.7.

In the case of `NC1CCN(c2cccc(Cl)n2)CC1` [SR57227], the Ki was found to be 39.7 ± 15 µM on A1B2D1R 5HTBP mutant [1] (setting [6]) and 85 ± 7.62 µM at A1B2D1R 5HTBP mutant [2] (setting [7]).

With `C=CCN1CCc2nc(N)sc2CC1` [B-HT920], the inhibition constant (Ki) on A1B2D1R 5HTBP mutant [1] (setting [6]) turned out to be 0.93 ± 0.24 µM; at A1B2D1R 5HTBP mutant [2] (setting [7]) it was 3.85 ± 0.76 µM.

Turning to `O=C1c2cccc3c2[C@H](CCC3)CN1[C@@H]1CN2CCC1CC2` [palonosetron], the inhibition constant Ki was found to be 0.51 ± 0.11 µM at A1B2D1R 5HTBP mutant [1] (setting [4]) and 2.2 ± 0.63 µM on A1B2D1R 5HTBP mutant [2] (setting [5]).
